{"source": "patent US11229611B2", "about": "“Clobazam transdermal delivery system and uses thereof” (TAHO Pharmaceuticals Ltd., priority 2020, dated 2022)", "key": {"[1]": {"tested_on": "isolated human cadaver epidermis", "assay": "flux through skin of EVA/PIB multilaminate formulations", "assay_type": "in vitro ADME", "text": "In certain embodiments, the adhesive composition contains the HMW and LMW PIB in weight ratios (HMW PIB: LMW PIB) in the range of about 3-40:97-60, in the range of about 5-25:95-75 and in the range of about 10-20:90-80. The ratio of HMW PIE to LMW PIE that provides an optimal adhesive for a specific drug agent will be dependent upon the identity and concentration of agent being delivered. As an example, in one effective embodiment the PIB adhesive includes 5 wt % HMW PIB material (such as OPPANOL L80, LlOO, and L 140 from BASF) and 95 wt % LMW PIB material (Such as OPPANOL BlO, BI 1, B12, and B13 from BASF).\nOptionally, modification of flux of the drug through the PIB can be effected by incorporating in the adhesive material such as micronized, crosslinked polyvinylpyrrolidone (PVP), such as CROSPOVIDONE (Kollidon CL-CY from BASF typically with bulk density between 0.2-0.3 g/cm3 and particle size D90 of 10-20 micron). Such PVP improves the permeability of clobazam material through the PIB layer.\nVarying the amounts of CROSPOVIDONE in the PIB adhesive would result in fine-tuning the flux of clobazam to desired levels. For example, multilaminate formulations containing different PVP amounts were tested for the effect of such variation on flux through skin. The multilaminate formulations contained 35 wt % of clobazam base in EVA40, an EVA12 as tie layer and PIB adhesive (5:95 L100:B12 PIB) with 12 wt % or 18 wt % PVP were tested. […] A formulation containing 30 wt % clobazam base and 15 wt % PVP was also tested. The flux of clobazam formulation from this formulation was 6.3μg/(cm^2 h). […] PIB polymers are available commercially, e.g., under the tradename VISTANEX™ from Exxon Chemical. The amount of PVP in the resulting adhesive can be about 1 wt % to 30 wt %, about 5 wt % to 25 wt %, about 8 wt % to 20 wt %.\nTransdermal flux can be measured with a standard procedure using Franz cells or using an array of formulations. Flux experiments were done on isolated human cadaver epidermis. With Franz cells, in each Franz diffusion cell a disc of epidermis is placed on the receptor compartment. A transdermal delivery system is placed over the diffusion area (1.98 cm^2) in the center of the receptor. The donor compartment is then added and clamped to the assembly. At time 0, receptor solution (between […] and 24 ml, exactly measured) is added into the receptor compartment and the cell maintained at 35° C. This temperature yields a skin surface temperature of 30-32° C. Samples of the receptor compartment are taken periodically to determine the flux through skin and analyzed by HPLC. An alternative way to test flux is to use an array of patches. In testing flux with an array of transdermal miniature patches, formulations are prepared by mixing stock solutions of each of the mixture components of formulation in organic solvents (about 15 wt % solids), followed by a mixing process. The mixtures are then aliquoted onto arrays as 4-mm diameter drops and allowed to dry, leaving behind solid samples or “dots.” (i.e., mini-patches). The miniature patches in the arrays are then tested individually for flux through skin using a permeation array, whose principle of drug flux from a patch formulation through epidermis to a compartment of receptor medium is similar to that of Franz cells (an array of miniature cells). […] Receptor fluid is auto-sampled from each of the permeation wells at regular intervals and then measured by HPLC to determine the flux of the drug."}, "[2]": {"conditions": "cited from earlier work"}, "[3]": {"assay": "solubility and compatibility of clobazam in a variety of excipients", "assay_type": "physicochemical", "protocol": "Solubility and compatibility of clobazam were tested in a variety of excipients according to the following functions: (1) alcohols; (2) emollients/oils; (3) esters; (4) fatty acids; (5) fatty acid esters; (6) fatty alcohols; (7) solubilizers; (8) solvents; and (9) surfactants."}}}
{"smiles": "CN1C(=O)CC(=O)N(c2ccccc2)c2cc(Cl)ccc21", "note": "[clobazam, 7-Chloro-1-methyl-5-phenyl-1,5-dihydro benzo[b][1,4]diazepine-2,4-dione]", "values": [{"measurement": "average clobazam base flux", "setting": "[1]; 5:95 L100:B12 PIB adhesive with 20 wt % CROSPOVIDONE", "result": "33.3 μg/(cm^2-h)"}, {"measurement": "flux", "setting": "[1]; 35 wt % clobazam base in EVA40, EVA12 tie layer, PIB adhesive (5:95 L100:B12) with 12 wt % PVP", "result": "5.4 μg/(cm^2 h)"}, {"measurement": "flux", "setting": "[1]; 35 wt % clobazam base in EVA40, EVA12 tie layer, PIB adhesive (5:95 L100:B12) with 18 wt % PVP", "result": "7.5 μg/(cm^2 h)"}, {"measurement": "clobazam base average flux", "setting": "[1]; clobazam 35 wt % in EVA40 drug layer 4-7 mil, PIB adhesive 5 wt % HMW / 95 wt % LMW, 2-3 mil", "result": 5.5, "unit": "μg/cm^2-h"}, {"measurement": "flux", "setting": "[1]; formulation with 30 wt % clobazam base and 15 wt % PVP", "result": "6.3 μg/(cm^2 h)"}, {"measurement": "solubility in water", "setting": "[2]; water at 25° C.", "result": 70, "unit": "microgram/ml"}, {"measurement": "water Solubility", "setting": "[2]; water", "result": 164, "unit": "µg/mL"}, {"measurement": "solubility among various alcohols", "setting": "[3]; in 4-allyl-2-ethoxyphenol", "result": "good solubility"}, {"measurement": "solubility among various surfactants, polymers and oils", "setting": "[3]; in Caprylocaproyl polyoxyl-8 glycerides and transcutol P", "result": "some solubility"}, {"measurement": "solubility in solvents", "setting": "[3]; in DCM, chloroform, DMA, DMI, DMSO and NMP", "result": "good solubility"}, {"measurement": "solubility among various fatty acids and fatty acid esters", "setting": "[3]; in methyl L-lactate, levulinic acid and ethyl levulinate", "result": "good solubility"}]}
